Assay results as given in paper PMC7016952, “Characterization of the Menin-MLL Interaction as Therapeutic Cancer Target” (Cancers, 2020).
Residues, ends and D or L forms follow the SMILES beside them. *: point of attachment. Cbz = O=C(OCc1ccccc1)*

How the values were obtained:
[1] = system: T1, menin protein levels in VCaP cells; test: Western blot of menin protein level; type: cell-based, human
T1 construct: endogenous in cells; host or cells: VCaP

CYP 3A4 = CYP 3A4 (Homo sapiens, UniProt P08684); test: CYP inhibition 3A4; type: in vitro ADME
[2] = system: safety pharmacology relevant proteins (GPCRs, ion channels and transporters); test: Selectivity panel of safety pharmacology assays; settings: 10 µM
CYP 2C9 = CYP 2C9 (Homo sapiens, UniProt P11712); test: CYP inhibition 2C9; type: in vitro ADME
MOLM-13 cells = test: Proliferation inhibition, MOLM-13; type: cell-based, human; settings: Homo sapiens, proliferation, read-out: Potency IC50 MOLM-13
menin-MLL interaction = molecular target: T2, menin-MLL interaction (Homo sapiens, UniProt O00255); test: TR-FRET menin-MLL binding assay; settings: read-out: Potency IC50 Menin-MLL binding
T2 construct: recombinant full length, His-tagged menin
T2 sequence (O00255 1-610): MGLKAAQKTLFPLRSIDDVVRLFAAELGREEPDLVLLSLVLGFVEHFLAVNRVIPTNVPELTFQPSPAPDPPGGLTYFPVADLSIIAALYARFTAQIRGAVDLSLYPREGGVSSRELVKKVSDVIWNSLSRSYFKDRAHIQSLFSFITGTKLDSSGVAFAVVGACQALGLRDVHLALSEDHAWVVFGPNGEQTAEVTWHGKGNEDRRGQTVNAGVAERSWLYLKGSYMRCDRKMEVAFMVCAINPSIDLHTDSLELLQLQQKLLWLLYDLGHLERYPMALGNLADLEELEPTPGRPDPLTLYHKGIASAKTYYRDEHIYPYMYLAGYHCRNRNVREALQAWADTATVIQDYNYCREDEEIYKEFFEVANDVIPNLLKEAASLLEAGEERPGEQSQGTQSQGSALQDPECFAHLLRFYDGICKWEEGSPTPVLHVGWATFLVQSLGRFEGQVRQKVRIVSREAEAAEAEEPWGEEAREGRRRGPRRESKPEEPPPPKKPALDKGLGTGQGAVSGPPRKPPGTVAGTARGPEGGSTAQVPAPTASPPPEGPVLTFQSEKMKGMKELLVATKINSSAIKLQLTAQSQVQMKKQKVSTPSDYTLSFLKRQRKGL

menin = molecular target: T3, menin (Homo sapiens, UniProt O00255); test: Isothermal Titration Calorimetry (ITC) on purified menin; type: binding; settings: ITC, 25 °C, menin 1-615; read-out: KD
T3 construct: purified menin (1–615 with GST-tag cleaved as described above); GST (TEV cleavable) (N, cleaved yes); made in house; host or cells: E. coli BL21 (DE3)
T3 sequence (O00255 1-615 isoform O00255-1): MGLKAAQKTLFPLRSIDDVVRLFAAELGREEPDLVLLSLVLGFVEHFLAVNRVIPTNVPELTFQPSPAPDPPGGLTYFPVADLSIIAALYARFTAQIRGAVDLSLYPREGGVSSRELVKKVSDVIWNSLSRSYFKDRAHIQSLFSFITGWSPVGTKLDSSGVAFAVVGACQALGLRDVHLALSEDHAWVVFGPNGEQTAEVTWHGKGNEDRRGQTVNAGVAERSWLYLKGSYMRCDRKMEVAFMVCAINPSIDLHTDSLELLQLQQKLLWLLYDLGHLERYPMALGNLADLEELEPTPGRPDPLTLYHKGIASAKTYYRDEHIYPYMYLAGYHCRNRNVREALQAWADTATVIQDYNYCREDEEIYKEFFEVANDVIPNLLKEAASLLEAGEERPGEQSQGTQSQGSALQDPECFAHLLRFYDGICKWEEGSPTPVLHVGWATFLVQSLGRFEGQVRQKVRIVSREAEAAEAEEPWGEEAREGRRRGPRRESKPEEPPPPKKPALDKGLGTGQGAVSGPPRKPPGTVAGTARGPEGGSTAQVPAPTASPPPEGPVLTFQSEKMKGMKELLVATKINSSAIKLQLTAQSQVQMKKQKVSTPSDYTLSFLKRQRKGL
Protocol: Cloning of expression vectors for recombinant menin was performed as follows. […] Proteins were expressed in E. coli BL21 (DE3) following 0.1 mM IPTG induction at 17 °C overnight. For purification, cell pellets were resuspended in buffer A (50 mM Tris pH 7.5, 300 mM NaCl, 2 mM DTT). Cells were lysed using a high pressure Microfluidics apparatus and the cell debris pelleted by centrifugation. The supernatant was applied to a GST column (GE Healthcare, Chicago, IL, USA), washed with two column volumes of washing buffer A and eluted with Buffer B (Buffer A plus 15 mM reduced glutathione). If necessary, the purification tag was cleaved off with the addition of His-TEV protease (1:20 mass ratio) during overnight incubation in buffer A. His-TEV was removed by IMAC column rebinding and final protein purification of either GST-cleaved or uncleaved menin-1 was performed by size exclusion chromatography using a HiLoad 16/60 Superdex 200 (GE Healthcare) column in buffer C (Buffer A but 50 mM NACl).
The compound was dissolved in 100% DMSO to a concentration of 10 mM and subsequently diluted to a final concentration of 5 µM in ITC Buffer. Isothermal Titration Calorimetry (ITC) was performed at 25 °C in a Microcal PEAQ-ITC (Malvern Panalytical). […] Reference Power was set to 6 μcal/s. Data were collected on high feedback mode. Analysis was performed with a single binding site model in the Microcal PEAQ-ITC Analysis Software (Malvern Panalytical).

[3] = Metabolic stability in rat hepatocytes; type: in vitro ADME; settings: in vitro maximal bioavailability
Protocol: Liver cells were distributed at a density of 1.0 × 10^6 cells/mL and treated with 1 µM BAY-155 or MI-503. During incubation, the hepatocyte suspensions were continuously shaken, and aliquots were taken at 2, 8, 16, 30, 45, and 90 min, fixed with cold methanol and stored at −20 °C. Next, samples were centrifuged and the supernatant was analyzed with an LC-MS/MS. The compound half-life was determined from the concentration–time plot. The intrinsic clearances were calculated from the half-life, together with additional parameters (liver blood flow, quantity of liver cells in vivo and in vitro).

Jurkat cells = test: Proliferation inhibition, Jurkat; type: cell-based; settings: Homo sapiens, read-out: Potency IC50 Jurkat
HL-60 cells = test: Proliferation inhibition, HL-60; type: cell-based; settings: Homo sapiens, read-out: Potency IC50 HL-60
CYP 2C8 = CYP 2C8 (Homo sapiens, UniProt P10632); test: CYP inhibition 2C8; type: in vitro ADME
CYP 1A2 = CYP 1A2 (Homo sapiens, UniProt P05177); test: CYP inhibition 1A2; type: in vitro ADME
CYP 2D6 = CYP 2D6 (Homo sapiens, UniProt P10635); test: CYP inhibition 2D6; type: in vitro ADME
MV4;11 cells = test: Proliferation inhibition, MV4;11; type: cell-based, human; settings: Homo sapiens, MV4-11; proliferation; read-out: Potency IC50 MV4;11
[4] = system: AR signaling pathway genes in VCaP tumor samples; test: Ex vivo gene expression in VCaP xenografts; design: species or system mice; settings: 52 days of treatment
Protocol: (§1) Total RNA was isolated using RNeasy-Plus Mini kit (Qiagen, Hilden, Germany). RNA (1 μg) was reverse transcribed using SuperScript III First-Strand Synthesis SuperMix (Life Technologies) and the generated cDNA was analyzed with commercial primers (Supplementary Materials Table S1) by qRT-PCR using TaqMan Fast Advanced Master Mix (Life Technologies). For the RNA-seq study, ZR-75-1, BT474, PANC-1, MiaPaCa-2, 22RV1, JMSU-1, DLD-1, SW1463, LoVo and G401 cells were treated with 5 µM BAY-155 or DMSO for 48 h prior to RNA extraction. After 48 h of 5 µM BAY-155 or DMSO treatment, MCF7, VCaP and LNCaP cells were stimulated for further 12 h with 0.1 nM of E2 (ß-Estradiol) or 1 nM R1881, respectively. MCF7, VCaP and LNCaP cells were cultured in starvation medium (containing 5 µM BAY-155 or DMSO) 6 h before stimulation. RNA was isolated using RNeasy-Plus Mini kit (Qiagen). The purified RNA was used for library preparation (Illumina, San Diego, CA, USA. TruSeq Stranded mRNA Kit) and the generated libraries were sequenced (Illumina, HiSeq2500 HTv4, SR, dual-indexing, 50 cycles).
(§2) Tumors were harvested, dissociated and total RNA was extracted using the TissueLyser (Qiagen, Hilden, Germany) together with RNeasy-Plus Mini kit according to the manufacturer protocol.

VCaP xenograft = VCaP xenograft efficacy; type: in vivo, mice
Protocol: (§3) Tumor cells were injected subcutaneously into the flanks of 6- to 9-week old animals. Efficacy studies in xenograft models were performed at Bayer or EPO GmbH (Berlin-Buch, Germany) using NMRI nu/nu, SCID, BALB/c Nude female mice or SCID male mice (VCaP tumors). All animal studies were conducted in accordance with the animal welfare laws and were approved by the State Office for Health and Social Affairs Berlin (LAGeSo). Experiments were run under the animal license B3600a0007. Compound treatment started at a predefined tumor size or burden or at a predefined day after cell inoculation. BAY-155 was administered orally (p.o.) at various doses and regorafenib, tamoxifen and enzalutamide (resuspended in PEG400/H2O 6/4 or PEG400/EtOH 9/1) were used as control treatment for RKO, MCF7 and VCaP xenografts, respectively. Subcutaneous tumor volumes were determined by caliper measurement.

RKO xenograft = RKO xenograft efficacy; type: in vivo, mice
Protocol: as §3

MCF7 xenograft = MCF7 xenograft efficacy; type: in vivo, mice
Protocol: as §3

[5] = system: ER signaling pathway genes in MCF7 tumor samples; test: Ex vivo gene expression in MCF7 xenografts; design: species or system mice; settings: 27 days of treatment
Protocol: as §1, §2

CYP 3A4, sequence (P08684 whole entry): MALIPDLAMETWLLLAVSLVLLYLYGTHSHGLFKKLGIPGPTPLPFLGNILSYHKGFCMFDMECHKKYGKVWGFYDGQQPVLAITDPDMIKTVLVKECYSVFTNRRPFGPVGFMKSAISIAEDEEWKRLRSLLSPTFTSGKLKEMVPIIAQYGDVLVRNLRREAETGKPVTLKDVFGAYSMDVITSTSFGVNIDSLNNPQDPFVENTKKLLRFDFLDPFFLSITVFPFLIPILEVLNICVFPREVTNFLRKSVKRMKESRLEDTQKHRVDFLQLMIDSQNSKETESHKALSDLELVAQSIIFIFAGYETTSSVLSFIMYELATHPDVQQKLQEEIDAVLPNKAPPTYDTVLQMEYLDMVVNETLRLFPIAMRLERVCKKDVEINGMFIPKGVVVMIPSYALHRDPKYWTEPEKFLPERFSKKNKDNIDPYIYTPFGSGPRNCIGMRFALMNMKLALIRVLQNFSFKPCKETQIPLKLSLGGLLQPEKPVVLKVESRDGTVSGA
CYP 1A2, sequence (P05177 whole entry): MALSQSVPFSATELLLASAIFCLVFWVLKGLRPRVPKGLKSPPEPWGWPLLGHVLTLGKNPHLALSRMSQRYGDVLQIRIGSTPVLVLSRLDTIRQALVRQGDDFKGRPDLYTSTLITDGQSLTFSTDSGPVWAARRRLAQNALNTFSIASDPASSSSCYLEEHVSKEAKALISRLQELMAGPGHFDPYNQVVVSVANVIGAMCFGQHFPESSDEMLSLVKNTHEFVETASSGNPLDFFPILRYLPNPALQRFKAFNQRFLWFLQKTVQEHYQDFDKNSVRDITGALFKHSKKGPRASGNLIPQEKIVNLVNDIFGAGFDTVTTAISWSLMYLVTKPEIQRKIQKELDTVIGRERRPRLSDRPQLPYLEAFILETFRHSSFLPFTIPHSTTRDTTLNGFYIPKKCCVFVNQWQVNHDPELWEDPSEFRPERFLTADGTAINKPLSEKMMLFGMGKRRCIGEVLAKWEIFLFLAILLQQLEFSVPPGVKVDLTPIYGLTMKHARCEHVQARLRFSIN
CYP 2D6, sequence (P10635 whole entry): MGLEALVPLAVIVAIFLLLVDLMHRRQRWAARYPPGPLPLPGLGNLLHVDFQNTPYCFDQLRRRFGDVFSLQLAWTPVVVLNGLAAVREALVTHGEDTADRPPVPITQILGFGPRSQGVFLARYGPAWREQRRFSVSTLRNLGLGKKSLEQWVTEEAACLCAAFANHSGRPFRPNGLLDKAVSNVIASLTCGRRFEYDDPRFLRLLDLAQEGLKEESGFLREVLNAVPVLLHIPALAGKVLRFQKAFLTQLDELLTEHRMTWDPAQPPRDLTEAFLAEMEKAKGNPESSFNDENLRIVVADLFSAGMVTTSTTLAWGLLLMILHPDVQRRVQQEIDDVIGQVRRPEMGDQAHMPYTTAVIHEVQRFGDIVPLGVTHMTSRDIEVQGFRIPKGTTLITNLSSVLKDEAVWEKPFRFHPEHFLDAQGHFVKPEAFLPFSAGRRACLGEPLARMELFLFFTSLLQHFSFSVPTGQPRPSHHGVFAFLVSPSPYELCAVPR
CYP 2C9, sequence (P11712 whole entry): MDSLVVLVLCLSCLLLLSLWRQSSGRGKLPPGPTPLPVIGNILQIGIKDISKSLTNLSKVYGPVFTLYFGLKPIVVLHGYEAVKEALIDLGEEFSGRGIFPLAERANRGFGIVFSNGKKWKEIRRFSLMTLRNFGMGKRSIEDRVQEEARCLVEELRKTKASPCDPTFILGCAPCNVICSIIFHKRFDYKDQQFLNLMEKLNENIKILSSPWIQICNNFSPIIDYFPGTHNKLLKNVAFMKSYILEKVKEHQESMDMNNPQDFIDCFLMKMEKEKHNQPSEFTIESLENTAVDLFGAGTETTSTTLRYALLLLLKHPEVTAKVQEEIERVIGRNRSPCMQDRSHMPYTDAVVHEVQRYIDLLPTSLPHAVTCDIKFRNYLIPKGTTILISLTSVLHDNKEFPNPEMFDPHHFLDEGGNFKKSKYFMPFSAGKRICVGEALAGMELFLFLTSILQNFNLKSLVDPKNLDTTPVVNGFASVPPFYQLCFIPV
CYP 2C8, sequence (P10632 whole entry): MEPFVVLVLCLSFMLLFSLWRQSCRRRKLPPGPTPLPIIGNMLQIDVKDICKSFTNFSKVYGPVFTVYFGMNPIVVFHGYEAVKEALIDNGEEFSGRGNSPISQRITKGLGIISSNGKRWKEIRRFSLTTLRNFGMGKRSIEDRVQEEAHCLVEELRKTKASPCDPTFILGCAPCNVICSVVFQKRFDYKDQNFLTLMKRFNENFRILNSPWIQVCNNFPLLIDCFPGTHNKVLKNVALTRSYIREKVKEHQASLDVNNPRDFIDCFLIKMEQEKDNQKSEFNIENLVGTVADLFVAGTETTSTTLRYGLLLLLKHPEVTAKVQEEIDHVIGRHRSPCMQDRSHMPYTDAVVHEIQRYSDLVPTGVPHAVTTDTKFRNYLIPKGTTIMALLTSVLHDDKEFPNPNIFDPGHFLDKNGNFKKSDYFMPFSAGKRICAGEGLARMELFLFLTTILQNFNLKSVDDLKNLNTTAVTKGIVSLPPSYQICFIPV

## CC(C)C[C@@H](C=O)NC(=O)[C@H](CC(C)C)NC(=O)[C@H](CC(C)C)NC(=O)OCc1ccccc1 [MG-132] (Cbz-Leu-Leu-Leu-aldehyde)
[1]; MG-132 10 µM with BAY-155 10 µM, 16 h
  rescue of menin protein level under BAY-155 treatment: fully rescued the menin protein level

## Cc1c(CN2CCC(Nc3ncnc4sc(CC(F)(F)F)cc34)CC2)ccc2c1cc(C#N)n2Cc1cn[nH]c1 [MI-503]
CYP 3A4
  IC50: 1000 nM
[2]
  number of tested proteins inhibited by ≥ 50%: 28
CYP 2C9
  IC50: 800 nM
MOLM-13 cells
  IC50: 893 nM
menin-MLL interaction
  IC50: 80 nM
menin
  Kd: 94 nM
[3]
  hepatocytes Fmax Rat: 48%
Jurkat cells
  IC50: 568 nM
HL-60 cells
  IC50: 672 nM
In vivo DMPK in rat; rat in vivo bioavailability
  in vivo F Rat: 2.7%
In vivo DMPK in rat; whole blood, rat in vivo, read-out: in vivo CL blood Rat (converted)
  clearance: 25 mL/min/kg
CYP 2C8
  IC50: 4000 nM
CYP 1A2
  IC50: > 10000 nM
[1]; Western blot
  menin protein levels: reduce menin protein levels in a time- and concentration-dependent manner
CYP 2D6
  IC50: 2400 nM
MV4;11 cells
  IC50: 251 nM

## CNC(=O)c1ccc(N2C(=S)N(c3ccc(C#N)c(C(F)(F)F)c3)C(=O)C2(C)C)cc1F [enzalutamide, reference compound]
[4]
  FKBP5 and TMPRSS2 expression ex vivo: significant reduction
VCaP xenograft
  tumor volume and tumor weight: reduced tumor volume and tumor weight

## CNC(=O)c1cc(Oc2ccc(NC(=O)Nc3ccc(Cl)c(C(F)(F)F)c3)c(F)c2)ccn1 [regorafenib, reference compound]
RKO xenograft
  tumor volume and weight (anti-growth effects): pronounced reduction of tumor volume and weight

## CC/C(=C(\c1ccccc1)c1ccc(OCCN(C)C)cc1)c1ccccc1 [tamoxifen, reference compound]
MCF7 xenograft
  tumor volume and tumor weight: reduced tumor volume and tumor weight
[5]
  EGR3, GREB1 and PGR1 expression ex vivo: significant reduction
